Test results: PubChem BioAssay (NCI)
“And” between values parts separate entries of the source, which are not always exact repeats. Equal values may be shown once.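 Where inhibition never reached the appropriate level, the endpoint shown equals the highest concentration tested. Otherwise, values were interpolated linearly from a five-concentration, 48-hour dose response in 96-well plates. Abbreviation: GI50, concentration required for 50% inhibition of growth. TGI marks complete inhibition of growth.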

Columns and labels:
Assay in all cases: NCI anticancer screen, dose series, 48 h
T-47D breast = tested on: T-47D breast
MOLT-4 leukemia = tested on: MOLT-4 leukemia
MALME-3M melanoma = tested on: MALME-3M melanoma
UACC-62 melanoma = tested on: UACC-62 melanoma
SNB-75 CNS = tested on: SNB-75 CNS
OVCAR-5 ovarian = tested on: OVCAR-5 ovarian
DU-145 prostate = tested on: DU-145 prostate
MDA-MB-435 = tested on: MDA-MB-435
HL-60(TB) leukemia = tested on: HL-60(TB) leukemia
BT-549 breast = tested on: BT-549 breast

Row | SMILES | GI50 (T-47D breast) | TGI (T-47D breast) | GI50 (MOLT-4 leukemia) | TGI (MOLT-4 leukemia) | GI50 (MALME-3M melanoma) | TGI (MALME-3M melanoma) | GI50 (UACC-62 melanoma) | TGI (UACC-62 melanoma) | GI50 (SNB-75 CNS) | TGI (SNB-75 CNS) | GI50 (OVCAR-5 ovarian) | TGI (OVCAR-5 ovarian) | GI50 (DU-145 prostate) | TGI (DU-145 prostate) | GI50 (MDA-MB-435) | TGI (MDA-MB-435) | GI50 (HL-60(TB) leukemia) | TGI (HL-60(TB) leukemia) | GI50 (BT-549 breast) | TGI (BT-549 breast)
1 | CC1/C=C/C=C/C=C/C=C/C=C/C=C/C=C/C(O[C@@H]2O[C@H](C)[C@H](O)[C@@H](O)[C@@H]2N)CC(O)C(C(=O)O)C(O)CC(=O)CC(O)CC(O)CC(O)CC(=O)CCCC(=O)CC(=O)OC1C(C)CC(C)C(O)CC(=O)c1ccc(N)cc1 (some centres undefined) | 0.0722 µM and 0.318 µM | 0.188 µM and 1.24 µM | 0.0679 µM and 0.172 µM | 0.143 µM and 0.402 µM | 0.0543 µM and 0.177 µM | 0.104 µM and 0.365 µM | 0.0576 µM and 0.203 µM | 0.109 µM and 0.458 µM | 0.0596 µM and 0.242 µM | 0.12 µM and 0.787 µM | 0.0792 µM and 0.357 µM | 0.216 µM and 1.3 µM | 0.0687 µM and 0.335 µM | 0.148 µM and 1.06 µM | 0.0597 µM and 0.208 µM | 0.108 µM and 0.438 µM | 0.0609 µM and 0.178 µM | 0.145 µM and 0.396 µM | 0.213 µM | 0.444 µM
2 | CCCCCCCC/C=C/CCCCCCCCC1=NCCN1CCO | 2.96 µM | 9.96 µM | 2.1 µM | 4.73 µM | 5.08 µM | 17.3 µM | 3.05 µM | 11 µM | 2.8 µM | 15.3 µM | 10.8 µM | 24 µM | 7.28 µM | 19.6 µM | 1.87 µM | 3.91 µM | 2.45 µM | 6.35 µM | 11.3 µM | 40.2 µM
3 | CCCCCC(O)C1C(=O)OC(C)C(O)/C=C/C=C/C=C/C=C\C=C(\C)C(O)CC(O)CC(O)CC(O)CC(O)CC(O)CC1O (centres undefined) | > 100 µM | > 100 µM | > 100 µM | > 100 µM | > 100 µM | > 100 µM | > 100 µM | > 100 µM | > 100 µM | > 100 µM | > 100 µM | > 100 µM | > 100 µM | > 100 µM | > 100 µM | > 100 µM | > 100 µM | > 100 µM | > 100 µM | > 100 µM
4 | C/C(=N\NC(=O)c1ccncc1)c1ccc2ccccc2c1O | – | 14.5 µM | – | 40.3 µM | – | 43.2 µM | – | 21.6 µM | – | > 43.8 µM | – | > 100 µM | – | 38.2 µM | – | > 100 µM | – | 10.3 µM | – | > 100 µM
5 | COc1ccc(NC(=O)n2nc(N)c3ccccc32)cc1OC | 33 µM | > 100 µM | 39.4 µM | > 100 µM | > 100 µM | > 100 µM | 52.3 µM | > 100 µM | 30.6 µM | > 100 µM | 45.5 µM | > 100 µM | 73.1 µM | > 100 µM | > 100 µM | > 100 µM | 27.9 µM | > 100 µM | 25.9 µM | > 100 µM
6 | C=C(C)[C@@H]1CC[C@]2(C)[C@H](C(=O)C=C3[C@@H]4C[C@](C)(C(=O)N5CCN(C)CC5)CC[C@]4(C)CC[C@]32C)[C@@]1(C)CCC#N | 4.42 µM | 13.4 µM | 2.95 µM | 10.9 µM | 3.94 µM | 10.6 µM | 6.03 µM | 12.5 µM | 7.52 µM | 15.8 µM | 7.01 µM | 13.6 µM | 7.85 µM | 15.3 µM | 7.33 µM | 14.2 µM | 4.19 µM | 11.8 µM | 6.67 µM | 13.4 µM
7 | CC[C@H]1CN2CCc3cc(OC)c(OC)cc3[C@@H]2C[C@@H]1C[C@H]1NCCc2cc(O)c(OC)cc21 | 0.022 µM | 0.0776 µM | – | 0.074 µM and 0.323 µM | – | 0.0795 µM and 0.355 µM and 0.265 µM | – | 0.0725 µM and 0.0247 µM and 0.105 µM | 0.0155 µM and 0.025 µM | 0.0735 µM and 0.147 µM and 0.0944 µM | – | 0.0751 µM and 0.503 µM | 0.0233 µM | 0.0637 µM and 0.137 µM | 0.0183 µM | 0.0377 µM and 0.156 µM | – | 0.0408 µM and 0.031 µM | 0.0422 µM and 0.0485 µM | 0.298 µM
8 | COc1ccc(C(=O)c2ccc(OC)c(OC)c2OC)cc1 | 5.37 µM | > 100 µM | 1.11 µM | > 100 µM | 1.77 µM | > 100 µM | 1.47 µM | > 100 µM | 1.76 µM | > 100 µM | 8.52 µM | > 100 µM | 2.14 µM | 10.6 µM | 0.2 µM | 0.525 µM | 0.464 µM | > 100 µM | 6.16 µM | > 100 µM
9 | CC(C)[C@@]12C[C@@H](OC(=O)[C@H]3CO3)[C@@](C)(O1)[C@@H]1CC[C@@H](C)[C@H]1[C@@H]2OC(=O)/C=C/c1ccccc1 | 8.11 µM | > 49.9 µM | 18.1 µM | > 100 µM | 13.9 µM | 30 µM | 13.6 µM | 35.7 µM | 2.72 µM | 29.7 µM | 20.5 µM | 68 µM | 31.5 µM | > 100 µM | 20.6 µM | > 73.5 µM | 13.4 µM | 44.5 µM | 1.34 µM | 13.7 µM
10 | O=C1OCC(c2cccs2)=C1Cl | 7.47 µM | > 100 µM | > 100 µM | > 100 µM | > 100 µM | > 100 µM | 19.5 µM | > 100 µM | 75.9 µM | > 100 µM | 76.7 µM | > 100 µM | 26.7 µM | > 100 µM | > 100 µM | > 100 µM | > 100 µM | > 100 µM | 33.4 µM | > 100 µM
11 | Cc1nc2sccn2c(=O)c1CCN1CCC(=C(c2ccc(F)cc2)c2ccc(F)cc2)CC1 | 11.7 µM | 28.9 µM | 8.52 µM | 29.9 µM | 11.4 µM | 25.5 µM | 6.73 µM | 20.5 µM | 14.5 µM | 28.7 µM | 15.2 µM | 29.4 µM | 15.7 µM | 30.4 µM | 14.2 µM | 28.2 µM | 5.92 µM | 26.5 µM | 9.38 µM | 24.5 µM
12 | COc1cc(NCCCCN=C(N)NC(N)=NC(C)C)c2ncccc2c1 | 0.739 µM | 8.2 µM | 3.28 µM | 16.6 µM | 1.14 µM | 4.6 µM | 10.3 µM | 24.3 µM | 4.21 µM | 17.3 µM | 17.3 µM | > 88.3 µM | 21 µM | > 59.9 µM | 12.9 µM | 26.7 µM | 3.47 µM | 10.9 µM | 9.6 µM | 23.9 µM
13 | CN(C)c1ccc(C(=C2C=CC(=[N+](C)C)C=C2)c2ccc(N(C)C)cc2)cc1 (tested in a mixture with another compound) | 0.0389 µM | 0.655 µM | 0.293 µM | 5.67 µM | 0.127 µM | 0.56 µM | – | 1.24 µM | 0.0724 µM | 0.54 µM | 0.559 µM | 1.77 µM | 0.0543 µM | 1.28 µM | 0.0626 µM | 0.676 µM | 0.125 µM | 0.677 µM | 0.188 µM | 0.84 µM
